Experimental data from patent publication US20250195490A1, “ALPHA-METHYLENE AND AMINOMETHYL LACTONES AND LACTAMS FOR TREATMENT OF CLOSTRIDIOIDES DIFFICILE INFECTION (CDI)” (Purdue Research Foundation, priority 2022, published 2025).
In brackets after ≈: the same amount, converted by molar mass. Like-named read-outs stand apart in the source and are kept apart here.

What was measured:
MRSA (USA300) = assay: microbe, parasite or virus in culture; format: cell-based, Staphylococcus aureus; conditions: for MIC MRSA (USA300): aerobic, 37° C., at least 18 hours
Experimental: Method: The minimum inhibitory concentration (MIC) of the compounds and control drugs, linezolid (antibiotic), vancomycin (antibiotic), 5-fluorocytosine (5-FC, antifungal drug), and fluconazole (antifungal drug) was determined using the broth microdilution method according to the guidelines outlined by the Clinical and Laboratory Standards Institute (CLSI) against clinically relevant bacterial (methicillin-resistant Staphylococcus aureus (MRSA), vancomycin-resistant Enterococcus faecalis (VRE), vancomycin-resistant Enterococcus faecium (VRE), Clostridioides difficile and Escherichia coli) and fungal (Candida albicans) strains. A solution equivalent to 0.5 McFarland standard was prepared from each strain and diluted in cation-adjusted Mueller-Hinton broth (for S. aureus and E. coli), tryptone soy broth (for E. faecalis), or brain heart infusion broth (for E. faecium) to achieve a bacterial inoculum of about 5×10^5 CFU/mL. C. difficile strains were cultured in brain heart infusion broth supplemented with hemin and vitamin K. C. albicans was diluted in RPMI medium supplemented with 3-(N-morpholino) propanesulfonic acid to achieve a fungal concentration of about 1.5×10^3 CFU/mL. Compounds and control drugs were added in the first row of the 96-well plates and diluted with media containing bacteria (to achieve a concentration gradient ranging from 128 to 1 μg/mL). For MRSA, VRE, and E. coli strains, plates were then incubated aerobically at 37° C. for at least 18 hours. C. albicans was incubated aerobically at 37° C. for 24 hours. Plates containing C. difficile were incubated anaerobically at […] for 48 hours.

Clostridioides difficile = assay: MIC by broth microdilution against Clostridioides difficile (Table 1); format: cell-based; conditions: for MIC Clostridioides difficile: anaerobic, 48 hours, strain BAA-1870
[1] = test system: hypervirulent Clostridioides difficile strains; assay: MIC against hypervirulent Clostridioides difficile strains; format: cell-based
How it was run: (§1)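 Broth microdilution in brain heart infusion broth with hemin and vitamin K, inoculum from 0.5 McFarland suspension. Compounds serially diluted from 128 to 1 μg/mL. Plates incubated anaerobically for 48 hours.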

[2] = test system: clinically important Clostridioides difficile strains; assay: MIC against clinically important Clostridioides difficile strains; format: cell-based
How it was run: as §1

L. gasseri = assay: MIC against human normal gut microbiota: L. gasseri; format: cell-based, Lactobacillus gasseri
How it was run: (§2)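 Bacteroides grown anaerobically 48 h at 37 °C on BHIS agar (hemin, vitamin K, L-cysteine), Lactobacillus on MRS agar under 5% CO2. Inocula ~5×10^5 CFU/mL in BHIS or MRS broth with serial compound dilutions, 48 h incubation. MIC = lowest concentration preventing visible growth.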

L. casei = assay: MIC against human normal gut microbiota: L. casei; format: cell-based, Lactobacillus casei
How it was run: as §2

L. reuteri = assay: MIC against human normal gut microbiota: L. reuteri; format: cell-based, Lactobacillus reuteri
How it was run: as §2

L. crispatus = assay: MIC against human normal gut microbiota: L. crispatus; format: cell-based, Lactobacillus crispatus
How it was run: as §2

Ba. fragilis = assay: MIC against human normal gut microbiota: Bacteroides fragilis; format: cell-based
How it was run: as §2

Ba. dorsei = assay: MIC against human normal gut microbiota: Bacteroides dorsei; format: cell-based
How it was run: as §2

Bi. breve = assay: MIC against human normal gut microbiota: Bifidobacterium breve; format: cell-based
How it was run: (§3)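 Growth inhibition was scored by eye after 48 h incubation of roughly 5×10^5 CFU/mL of each gut commensal with serial compound dilutions. Anaerobes were grown in BHIS medium, while lactobacilli were grown in MRS medium.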

Bi. longum = assay: MIC against human normal gut microbiota: Bifidobacterium longum; format: cell-based
How it was run: as §3

## COc1cc(C2OC(=O)C(CN3CCCCC3)C2c2ccccc2Br)ccc1OCc1ccccc1 (racemic) [Compound 27]
MRSA (USA300)
  MIC MRSA (USA300): >128 µg/mL
Clostridioides difficile
  MIC Clostridioides difficile: 1 µg/mL (≈ 1.82 µM)
[1]; CD strain 81
  MIC: 2 µg/mL (≈ 3.63 µM)
[1]; CD strain 82
  MIC: 2 µg/mL (≈ 3.63 µM)
[1]; CD strain 83
  MIC: 2 µg/mL (≈ 3.63 µM)
[1]; CD strain 84
  MIC: 4 µg/mL (≈ 7.27 µM)
[1]; CD strain 85
  MIC: 2 µg/mL (≈ 3.63 µM)
[1]; CD strain 86
  MIC: 2 µg/mL (≈ 3.63 µM)
[1]; CD strain 87
  MIC: 2 µg/mL (≈ 3.63 µM)
[1]; CD strain 90
  MIC: 1 µg/mL (≈ 1.82 µM)
[1]; CD strain 49279
  MIC: 2 µg/mL (≈ 3.63 µM)
[1]; CD strain 49287
  MIC: 1 µg/mL (≈ 1.82 µM)
[1]; CD strain 49291
  MIC: 1 µg/mL (≈ 1.82 µM)
[2]; CD strain 16
  MIC: 1 µg/mL (≈ 1.82 µM)
[2]; CD strain 18
  MIC: 2 µg/mL (≈ 3.63 µM)
[2]; CD strain 19
  MIC: 1 µg/mL (≈ 1.82 µM)
[2]; CD strain 1801
  MIC: 1 µg/mL (≈ 1.82 µM)
[2]; CD strain 43255
  MIC: 1 µg/mL (≈ 1.82 µM)
[2]; CD strain P6
  MIC: 2 µg/mL (≈ 3.63 µM)
[2]; CD strain P7
  MIC: 1 µg/mL (≈ 1.82 µM)
[2]; CD strain P13
  MIC: 1 µg/mL (≈ 1.82 µM)
[2]; CD strain P19
  MIC: 2 µg/mL (≈ 3.63 µM)
L. gasseri; L. gasseri HM 407
  MIC: >128 µg/mL
L. casei; L. casei HM 334
  MIC: >128 µg/mL
L. reuteri; L. reuteri HM 120
  MIC: >128 µg/mL
L. crispatus; L. crispatus HM 375
  MIC: >128 µg/mL
L. crispatus; L. crispatus HM 421
  MIC: >128 µg/mL
Ba. fragilis; Ba. fragilis HM 709
  MIC: >128 µg/mL
Ba. fragilis; Ba. fragilis HM 710
  MIC: >128 µg/mL
Ba. fragilis; Ba. fragilis HM 711
  MIC: >128 µg/mL
Ba. fragilis; Ba. fragilis HM 714
  MIC: >128 µg/mL
Ba. dorsei; Ba. dorsei HM 29
  MIC: >128 µg/mL
Ba. dorsei; Ba. dorsei HM 717
  MIC: >128 µg/mL
Bi. breve; Bi. breve HM 856
  MIC: >128 µg/mL
Bi. longum; Bi. longum HM 848
  MIC: >128 µg/mL

## C=C1C(=O)O[C@H](c2ccccc2O)[C@@H]1c1cccc(C#N)c1 (racemic) [Compound 50]
MRSA (USA300)
  MIC MRSA (USA300): >128 µg/mL
Clostridioides difficile
  MIC Clostridioides difficile: 8 µg/mL (≈ 27.5 µM)
[1]; CD strain 81
  MIC: >128 µg/mL
[1]; CD strain 82
  MIC: 64 µg/mL (≈ 220 µM)
[1]; CD strain 83
  MIC: 128 µg/mL (≈ 439 µM)
[1]; CD strain 84
  MIC: >128 µg/mL
[1]; CD strain 85
  MIC: >128 µg/mL
[1]; CD strain 86
  MIC: 128 µg/mL (≈ 439 µM)
[1]; CD strain 87
  MIC: 128 µg/mL (≈ 439 µM)
[1]; CD strain 90
  MIC: 128 µg/mL (≈ 439 µM)
[1]; CD strain 49279
  MIC: >128 µg/mL
[1]; CD strain 49287
  MIC: 128 µg/mL (≈ 439 µM)
[1]; CD strain 49291
  MIC: 64 µg/mL (≈ 220 µM)
[2]; CD strain 16
  MIC: 128 µg/mL (≈ 439 µM)
[2]; CD strain 18
  MIC: 32 µg/mL (≈ 110 µM)
[2]; CD strain 19
  MIC: 128 µg/mL (≈ 439 µM)
[2]; CD strain 1801
  MIC: 128 µg/mL (≈ 439 µM)
[2]; CD strain 43255
  MIC: 16 µg/mL (≈ 54.9 µM)
[2]; CD strain P6
  MIC: 128 µg/mL (≈ 439 µM)
[2]; CD strain P7
  MIC: 128 µg/mL (≈ 439 µM)
[2]; CD strain P13
  MIC: 32 µg/mL (≈ 110 µM)
[2]; CD strain P19
  MIC: 32 µg/mL (≈ 110 µM)
L. gasseri; L. gasseri HM 407
  MIC: >128 µg/mL
L. casei; L. casei HM 334
  MIC: >128 µg/mL
L. reuteri; L. reuteri HM 120
  MIC: >128 µg/mL
L. crispatus; L. crispatus HM 375
  MIC: >128 µg/mL
L. crispatus; L. crispatus HM 421
  MIC: >128 µg/mL
Ba. fragilis; Ba. fragilis HM 709
  MIC: >128 µg/mL
Ba. fragilis; Ba. fragilis HM 710
  MIC: >128 µg/mL
Ba. fragilis; Ba. fragilis HM 711
  MIC: >128 µg/mL
Ba. fragilis; Ba. fragilis HM 714
  MIC: >128 µg/mL
Ba. dorsei; Ba. dorsei HM 29
  MIC: >128 µg/mL
Ba. dorsei; Ba. dorsei HM 717
  MIC: >128 µg/mL
Bi. breve; Bi. breve HM 856
  MIC: >128 µg/mL
Bi. longum; Bi. longum HM 848
  MIC: >128 µg/mL

## CN[C@H](CC(C)C)C(=O)N[C@H]1C(=O)N[C@@H](CC(N)=O)C(=O)N[C@H]2C(=O)N[C@H]3C(=O)N[C@H](C(=O)N[C@H](C(=O)O)c4cc(O)cc(O)c4-c4cc3ccc4O)[C@H](O)c3ccc(c(Cl)c3)Oc3cc2cc(c3O[C@@H]2O[C@H](CO)[C@@H](O)[C@H](O)[C@H]2O[C@H]2C[C@](C)(N)[C@H](O)[C@H](C)O2)Oc2ccc(cc2Cl)[C@H]1O [Vancomycin, reference compound]
MRSA (USA300); Staphylococcus aureus, 18 h, read-out: MIC MRSA (USA300)
  MIC: 1 µg/mL (≈ 0.69 µM)
Clostridioides difficile; Clostridioides difficile, BAA1870, 48 h, read-out: MIC Clostridioides difficile
  MIC: 1 µg/mL (≈ 0.69 µM)
[1]; Clostridioides difficile, CD strain 81
  MIC: 0.25 µg/mL (≈ 0.173 µM)
[1]; Clostridioides difficile, CD strain 82
  MIC: 0.5 µg/mL (≈ 0.345 µM)
[1]; Clostridioides difficile, CD strain 83
  MIC: 0.5 µg/mL (≈ 0.345 µM)
[1]; Clostridioides difficile, CD strain 84
  MIC: 0.25 µg/mL (≈ 0.173 µM)
[1]; Clostridioides difficile, CD strain 85
  MIC: 2 µg/mL (≈ 1.38 µM)
[1]; Clostridioides difficile, CD strain 86
  MIC: 0.5 µg/mL (≈ 0.345 µM)
[1]; Clostridioides difficile, CD strain 87
  MIC: 0.5 µg/mL (≈ 0.345 µM)
[1]; Clostridioides difficile, CD strain 90
  MIC: 1 µg/mL (≈ 0.69 µM)
[1]; Clostridioides difficile, CD strain 49279
  MIC: 1 µg/mL (≈ 0.69 µM)
[1]; Clostridioides difficile, CD strain 49287
  MIC: 0.25 µg/mL (≈ 0.173 µM)
[1]; Clostridioides difficile, CD strain 49291
  MIC: 0.25 µg/mL (≈ 0.173 µM)
[2]; Clostridioides difficile, CD strain 16, read-out: MIC
  MIC: 1 µg/mL (≈ 0.69 µM)
[2]; Clostridioides difficile, CD strain 18, read-out: MIC
  MIC: 0.5 µg/mL (≈ 0.345 µM)
[2]; Clostridioides difficile, CD strain 19, read-out: MIC
  MIC: 1 µg/mL (≈ 0.69 µM)
[2]; Clostridioides difficile, CD strain 1801, read-out: MIC
  MIC: 1 µg/mL (≈ 0.69 µM)
[2]; Clostridioides difficile, CD strain 43255, read-out: MIC
  MIC: 1 µg/mL (≈ 0.69 µM)
[2]; Clostridioides difficile, CD strain P6, read-out: MIC
  MIC: 1 µg/mL (≈ 0.69 µM)
[2]; Clostridioides difficile, CD strain P7, read-out: MIC
  MIC: 1 µg/mL (≈ 0.69 µM)
[2]; Clostridioides difficile, CD strain P13, read-out: MIC
  MIC: 1 µg/mL (≈ 0.69 µM)
[2]; Clostridioides difficile, CD strain P19, read-out: MIC
  MIC: 1 µg/mL (≈ 0.69 µM)
L. gasseri; Lactobacillus gasseri
  MIC: > 128 µg/mL
L. casei; Lacticaseibacillus casei
  MIC: > 128 µg/mL
L. reuteri; Limosilactobacillus reuteri
  MIC: > 128 µg/mL
L. crispatus; L. crispatus HM 375
  MIC: ≤1 µg/mL
L. crispatus; Lactobacillus crispatus
  MIC: ≤ 1 µg/mL
Ba. fragilis; Bacteroides fragilis, Ba. fragilis HM 710
  MIC: 16 µg/mL (≈ 11 µM)
Ba. fragilis; Bacteroides fragilis, Ba. fragilis HM 711
  MIC: 16 µg/mL (≈ 11 µM)
Ba. fragilis; Bacteroides fragilis, Ba. fragilis HM 714
  MIC: 16 µg/mL (≈ 11 µM)
Ba. fragilis; Bacteroides fragilis, Ba. fragilis HM 709
  MIC: 64 µg/mL (≈ 44.2 µM)
Ba. dorsei; Bacteroides, Ba. dorsei HM 717
  MIC: 8 µg/mL (≈ 5.52 µM)
Ba. dorsei; Bacteroides, Ba. dorsei HM 29
  MIC: 128 µg/mL (≈ 88.3 µM)
Bi. breve; Bifidobacterium breve
  MIC: ≤ 1 µg/mL
Bi. longum; Bifidobacterium longum
  MIC: 64 µg/mL (≈ 44.2 µM)
